# Experimental data published in US12227500B2, “Substituted pyrrolo[2,3-b]pyridines for suppressing toxic endoplasmic reticulum stress” (THE TRUSTEES OF COLUMBIA UNIVERSITY IN THE CITY OF NEW YORK, priority 2018, dated 2025).
# Read-outs that look alike come from different tables or passages of the source.
# Columns and labels:
# Assay in all cases: Radiolabeled ATP kinase assay, panel of 371 kinases (Table S6)
# Format in all cases: biochemical
# [1] = target: T1, panel of 371 human kinases (Homo sapiens, UniProt P04629); conditions: TRKA; 0.1 μM; 10 μM ATP; read-out: % Enzyme Activity (relative to DMSO controls)
# T1 construct: purchased Reaction Biology Corp
# From the text: (§1) ; FIG. 38C). […]. Further targeted analyses, such as genetic knock-down or knock-out, may be warranted to parse the role of these additional kinases in our model of neurodegeneration.
# [2] = target: T2, panel of 371 human kinases (Homo sapiens, UniProt P06493); conditions: 0.1 μM, 10 μM ATP, read-out: % Enzyme Activity (relative to DMSO controls)
# T2 construct: purchased Reaction Biology Corp
# T2 sequence (P06493 whole entry): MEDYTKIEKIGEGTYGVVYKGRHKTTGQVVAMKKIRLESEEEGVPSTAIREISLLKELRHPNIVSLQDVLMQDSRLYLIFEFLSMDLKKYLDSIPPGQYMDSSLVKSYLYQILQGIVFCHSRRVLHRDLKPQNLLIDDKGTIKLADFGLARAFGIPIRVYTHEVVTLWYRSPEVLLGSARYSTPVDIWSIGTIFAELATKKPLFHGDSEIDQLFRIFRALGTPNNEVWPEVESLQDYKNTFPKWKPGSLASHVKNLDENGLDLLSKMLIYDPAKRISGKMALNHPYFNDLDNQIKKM
# From the text: as §1
# [3] = target: T3, panel of 371 human kinases (Homo sapiens, UniProt P15056); conditions: BRAF; 0.1 μM; 10 μM ATP; read-out: % Enzyme Activity (relative to DMSO controls)
# T3 construct: purchased Reaction Biology Corp
# From the text: as §1
# [4] = target: T4, panel of 371 human kinases (Homo sapiens, UniProt P17252); conditions: PKCa; 0.1 μM; 10 μM ATP; read-out: % Enzyme Activity (relative to DMSO controls)
# T4 construct: purchased Reaction Biology Corp
# From the text: as §1
# [5] = target: T5, panel of 371 human kinases (Homo sapiens, UniProt P42679); conditions: CTK/MATK; 0.1 μM; 10 μM ATP; read-out: % Enzyme Activity (relative to DMSO controls)
# T5 construct: purchased Reaction Biology Corp
# From the text: as §1
# [6] = target: T6, panel of 371 human kinases (Homo sapiens, UniProt P42684); conditions: ABL2/ARG; 0.1 μM; 10 μM ATP; read-out: % Enzyme Activity (relative to DMSO controls)
# T6 construct: purchased Reaction Biology Corp
# From the text: as §1
# [7] = target: T7, panel of 371 human kinases (Homo sapiens, UniProt P42685); conditions: FRK/PTK5; 0.1 μM; 10 μM ATP; read-out: % Enzyme Activity (relative to DMSO controls)
# T7 construct: purchased Reaction Biology Corp
# From the text: as §1
# [8] = target: T8, panel of 371 human kinases (Homo sapiens, UniProt P53667); conditions: LIMK1; 0.1 μM; 10 μM ATP; read-out: % Enzyme Activity (relative to DMSO controls)
# T8 construct: purchased Reaction Biology Corp
# From the text: as §1
# [9] = target: T9, panel of 371 human kinases (Homo sapiens, UniProt Q02750); conditions: MEK1; 0.1 μM; 10 μM ATP; read-out: % Enzyme Activity (relative to DMSO controls)
# T9 construct: purchased Reaction Biology Corp
# T9 sequence (Q02750 whole entry): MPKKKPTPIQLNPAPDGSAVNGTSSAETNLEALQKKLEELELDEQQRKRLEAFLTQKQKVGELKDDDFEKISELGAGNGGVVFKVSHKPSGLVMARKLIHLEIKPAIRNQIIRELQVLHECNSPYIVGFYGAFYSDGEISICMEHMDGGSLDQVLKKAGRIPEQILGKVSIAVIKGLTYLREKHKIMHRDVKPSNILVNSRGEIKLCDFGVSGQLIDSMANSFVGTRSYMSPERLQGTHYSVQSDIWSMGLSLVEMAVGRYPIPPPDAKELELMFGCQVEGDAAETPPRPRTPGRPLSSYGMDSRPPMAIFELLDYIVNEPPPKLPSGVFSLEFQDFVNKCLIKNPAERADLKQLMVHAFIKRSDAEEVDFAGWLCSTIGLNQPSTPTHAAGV
# From the text: as §1
# [10] = target: T10, panel of 371 human kinases (Homo sapiens, UniProt Q05655); conditions: PKCd; 0.1 μM; 10 μM ATP; read-out: % Enzyme Activity (relative to DMSO controls)
# T10 construct: purchased Reaction Biology Corp
# From the text: as §1
# [11] = target: T11, panel of 371 human kinases (Homo sapiens, UniProt Q07002); conditions: CDK18/cyclin Y (PCTK3); 0.1 μM; 10 μM ATP; read-out: % Enzyme Activity (relative to DMSO controls)
# T11 construct: purchased Reaction Biology Corp
# T11 sequence (Q07002 whole entry): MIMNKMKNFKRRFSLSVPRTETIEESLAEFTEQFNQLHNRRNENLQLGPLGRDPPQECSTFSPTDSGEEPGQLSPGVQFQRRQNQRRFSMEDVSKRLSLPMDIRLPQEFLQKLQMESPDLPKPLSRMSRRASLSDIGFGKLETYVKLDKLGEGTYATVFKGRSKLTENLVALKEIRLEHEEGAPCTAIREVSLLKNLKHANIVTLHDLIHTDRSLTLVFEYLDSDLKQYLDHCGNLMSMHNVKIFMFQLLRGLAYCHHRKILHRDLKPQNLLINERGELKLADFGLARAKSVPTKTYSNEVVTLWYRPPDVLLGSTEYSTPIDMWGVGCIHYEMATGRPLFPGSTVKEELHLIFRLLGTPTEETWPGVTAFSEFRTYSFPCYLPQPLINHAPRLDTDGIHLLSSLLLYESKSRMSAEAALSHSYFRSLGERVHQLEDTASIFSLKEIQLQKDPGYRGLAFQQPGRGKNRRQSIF
# From the text: as §1
# [12] = target: T12, panel of 371 human kinases (Homo sapiens, UniProt Q13882); conditions: BRK; 0.1 μM; 10 μM ATP; read-out: % Enzyme Activity (relative to DMSO controls)
# T12 construct: purchased Reaction Biology Corp
# From the text: as §1
# [13] = target: T13, panel of 371 human kinases (Homo sapiens, UniProt Q16644); conditions: MAPKAPK3; 0.1 μM; 10 μM ATP; read-out: % Enzyme Activity (relative to DMSO controls)
# T13 construct: purchased Reaction Biology Corp
# From the text: as §1
# [14] = target: T14, panel of 371 human kinases (Homo sapiens, UniProt Q5VT25); conditions: MRCKa/CDC42BPA; 0.1 μM; 10 μM ATP; read-out: % Enzyme Activity (relative to DMSO controls)
# T14 construct: purchased Reaction Biology Corp
# From the text: as §1
# [15] = target: T15, panel of 371 human kinases (Homo sapiens, UniProt Q6PHR2); conditions: ULK3; 0.1 μM; 10 μM ATP; read-out: % Enzyme Activity (relative to DMSO controls)
# T15 construct: purchased Reaction Biology Corp
# From the text: as §1
# [16] = target: T16, panel of 371 human kinases (Homo sapiens, UniProt Q6VAB6); conditions: KSR2; 0.1 μM; 10 μM ATP; read-out: % Enzyme Activity (relative to DMSO controls)
# T16 construct: purchased Reaction Biology Corp
# T16 sequence (Q6VAB6 whole entry): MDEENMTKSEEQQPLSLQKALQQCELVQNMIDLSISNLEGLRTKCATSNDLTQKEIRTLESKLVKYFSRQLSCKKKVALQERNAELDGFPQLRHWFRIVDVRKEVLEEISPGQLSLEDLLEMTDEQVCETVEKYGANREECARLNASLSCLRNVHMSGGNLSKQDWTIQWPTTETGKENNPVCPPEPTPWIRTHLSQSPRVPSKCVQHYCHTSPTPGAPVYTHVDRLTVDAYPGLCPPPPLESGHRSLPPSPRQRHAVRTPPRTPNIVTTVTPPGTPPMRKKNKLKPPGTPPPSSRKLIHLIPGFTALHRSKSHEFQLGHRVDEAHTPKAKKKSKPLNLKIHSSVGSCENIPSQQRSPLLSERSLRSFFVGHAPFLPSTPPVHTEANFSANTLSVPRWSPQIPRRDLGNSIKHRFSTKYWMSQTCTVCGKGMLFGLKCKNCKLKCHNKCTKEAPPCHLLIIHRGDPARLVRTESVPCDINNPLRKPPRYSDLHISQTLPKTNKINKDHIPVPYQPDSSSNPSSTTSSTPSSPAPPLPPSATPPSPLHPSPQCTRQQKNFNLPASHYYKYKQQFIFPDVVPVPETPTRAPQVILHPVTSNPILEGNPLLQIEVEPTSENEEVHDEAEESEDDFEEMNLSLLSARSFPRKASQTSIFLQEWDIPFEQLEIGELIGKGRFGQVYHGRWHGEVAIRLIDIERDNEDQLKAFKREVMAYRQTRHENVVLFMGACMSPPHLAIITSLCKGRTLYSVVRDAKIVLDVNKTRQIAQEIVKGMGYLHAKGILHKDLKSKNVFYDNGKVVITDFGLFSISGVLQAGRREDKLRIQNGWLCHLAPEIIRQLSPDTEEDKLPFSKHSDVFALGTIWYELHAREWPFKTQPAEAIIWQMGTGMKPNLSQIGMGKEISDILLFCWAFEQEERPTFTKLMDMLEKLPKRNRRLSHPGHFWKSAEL
# From the text: as §1
# [17] = target: T17, panel of 371 human kinases (Homo sapiens, UniProt Q6XUX3); conditions: RIPK5; 0.1 μM; 10 μM ATP; read-out: % Enzyme Activity (relative to DMSO controls)
# T17 construct: purchased Reaction Biology Corp
# T17 sequence (Q6XUX3 whole entry): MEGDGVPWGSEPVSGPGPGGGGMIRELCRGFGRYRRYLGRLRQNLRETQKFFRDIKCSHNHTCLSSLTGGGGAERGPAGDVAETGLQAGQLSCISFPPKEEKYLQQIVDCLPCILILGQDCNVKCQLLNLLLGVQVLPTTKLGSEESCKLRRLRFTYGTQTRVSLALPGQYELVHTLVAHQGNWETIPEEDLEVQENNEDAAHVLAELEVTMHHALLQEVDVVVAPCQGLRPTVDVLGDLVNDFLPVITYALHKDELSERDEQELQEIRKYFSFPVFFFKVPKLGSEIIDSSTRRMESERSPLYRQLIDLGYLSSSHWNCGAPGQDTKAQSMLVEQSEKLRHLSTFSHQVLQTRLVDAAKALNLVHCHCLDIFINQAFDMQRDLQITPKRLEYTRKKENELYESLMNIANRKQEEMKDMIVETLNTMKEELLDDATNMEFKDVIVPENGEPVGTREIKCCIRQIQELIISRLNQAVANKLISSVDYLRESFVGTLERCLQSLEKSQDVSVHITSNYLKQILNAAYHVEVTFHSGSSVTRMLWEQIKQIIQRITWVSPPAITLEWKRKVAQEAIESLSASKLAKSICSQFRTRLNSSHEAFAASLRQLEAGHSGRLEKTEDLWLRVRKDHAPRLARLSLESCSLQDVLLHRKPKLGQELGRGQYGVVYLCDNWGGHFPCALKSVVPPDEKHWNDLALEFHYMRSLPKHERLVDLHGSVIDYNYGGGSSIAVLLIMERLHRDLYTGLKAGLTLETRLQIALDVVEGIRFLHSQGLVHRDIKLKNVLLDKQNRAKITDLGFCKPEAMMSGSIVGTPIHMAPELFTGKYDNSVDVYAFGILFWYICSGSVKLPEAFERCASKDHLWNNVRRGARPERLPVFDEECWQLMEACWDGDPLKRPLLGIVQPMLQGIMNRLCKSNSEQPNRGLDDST
# From the text: as §1
# [18] = target: T18, panel of 371 human kinases (Homo sapiens, UniProt Q8IWQ3); conditions: BRSK2; 0.1 μM; 10 μM ATP; read-out: % Enzyme Activity (relative to DMSO controls)
# T18 construct: purchased Reaction Biology Corp
# T18 sequence (Q8IWQ3 whole entry): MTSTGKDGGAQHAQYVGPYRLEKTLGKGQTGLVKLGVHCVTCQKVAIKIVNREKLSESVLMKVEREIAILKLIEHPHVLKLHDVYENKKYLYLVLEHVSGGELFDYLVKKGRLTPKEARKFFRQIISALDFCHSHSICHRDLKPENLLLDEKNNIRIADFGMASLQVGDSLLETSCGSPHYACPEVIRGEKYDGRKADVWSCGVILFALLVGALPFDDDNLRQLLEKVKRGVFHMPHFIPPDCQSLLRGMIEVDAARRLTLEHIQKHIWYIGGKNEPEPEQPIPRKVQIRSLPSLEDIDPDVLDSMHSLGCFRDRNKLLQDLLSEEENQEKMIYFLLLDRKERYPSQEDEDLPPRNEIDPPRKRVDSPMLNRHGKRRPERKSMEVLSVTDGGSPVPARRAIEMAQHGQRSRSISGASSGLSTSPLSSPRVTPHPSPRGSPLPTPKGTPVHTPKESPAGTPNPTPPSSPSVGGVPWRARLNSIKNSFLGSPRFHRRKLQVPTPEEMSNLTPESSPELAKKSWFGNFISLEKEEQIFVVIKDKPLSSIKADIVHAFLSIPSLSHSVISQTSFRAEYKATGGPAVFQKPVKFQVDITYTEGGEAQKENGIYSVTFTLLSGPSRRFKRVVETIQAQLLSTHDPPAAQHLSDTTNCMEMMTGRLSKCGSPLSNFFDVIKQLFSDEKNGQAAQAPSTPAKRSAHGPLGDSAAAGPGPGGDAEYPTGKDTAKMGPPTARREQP
# From the text: as §1
# [19] = target: T19, panel of 371 human kinases (Homo sapiens, UniProt Q8NE63); conditions: HIPK4; 0.1 μM; 10 μM ATP; read-out: % Enzyme Activity (relative to DMSO controls)
# T19 construct: purchased Reaction Biology Corp
# From the text: as §1
# [20] = target: T20, panel of 371 human kinases (Homo sapiens, UniProt Q96KB5); conditions: PBK/TOPK; 0.1 μM; 10 μM ATP; read-out: % Enzyme Activity (relative to DMSO controls)
# T20 construct: purchased Reaction Biology Corp
# From the text: as §1
# [21] = target: T21, panel of 371 human kinases (Homo sapiens, UniProt Q9H0K1); conditions: SIK2; 0.1 μM; 10 μM ATP; read-out: % Enzyme Activity (relative to DMSO controls)
# T21 construct: purchased Reaction Biology Corp
# From the text: as §1
# [22] = target: T22, panel of 371 human kinases (Homo sapiens, UniProt Q9H2G2); conditions: SLK/STK2; 0.1 μM; 10 μM ATP; read-out: % Enzyme Activity (relative to DMSO controls)
# T22 construct: purchased Reaction Biology Corp
# T22 sequence (Q9H2G2 whole entry): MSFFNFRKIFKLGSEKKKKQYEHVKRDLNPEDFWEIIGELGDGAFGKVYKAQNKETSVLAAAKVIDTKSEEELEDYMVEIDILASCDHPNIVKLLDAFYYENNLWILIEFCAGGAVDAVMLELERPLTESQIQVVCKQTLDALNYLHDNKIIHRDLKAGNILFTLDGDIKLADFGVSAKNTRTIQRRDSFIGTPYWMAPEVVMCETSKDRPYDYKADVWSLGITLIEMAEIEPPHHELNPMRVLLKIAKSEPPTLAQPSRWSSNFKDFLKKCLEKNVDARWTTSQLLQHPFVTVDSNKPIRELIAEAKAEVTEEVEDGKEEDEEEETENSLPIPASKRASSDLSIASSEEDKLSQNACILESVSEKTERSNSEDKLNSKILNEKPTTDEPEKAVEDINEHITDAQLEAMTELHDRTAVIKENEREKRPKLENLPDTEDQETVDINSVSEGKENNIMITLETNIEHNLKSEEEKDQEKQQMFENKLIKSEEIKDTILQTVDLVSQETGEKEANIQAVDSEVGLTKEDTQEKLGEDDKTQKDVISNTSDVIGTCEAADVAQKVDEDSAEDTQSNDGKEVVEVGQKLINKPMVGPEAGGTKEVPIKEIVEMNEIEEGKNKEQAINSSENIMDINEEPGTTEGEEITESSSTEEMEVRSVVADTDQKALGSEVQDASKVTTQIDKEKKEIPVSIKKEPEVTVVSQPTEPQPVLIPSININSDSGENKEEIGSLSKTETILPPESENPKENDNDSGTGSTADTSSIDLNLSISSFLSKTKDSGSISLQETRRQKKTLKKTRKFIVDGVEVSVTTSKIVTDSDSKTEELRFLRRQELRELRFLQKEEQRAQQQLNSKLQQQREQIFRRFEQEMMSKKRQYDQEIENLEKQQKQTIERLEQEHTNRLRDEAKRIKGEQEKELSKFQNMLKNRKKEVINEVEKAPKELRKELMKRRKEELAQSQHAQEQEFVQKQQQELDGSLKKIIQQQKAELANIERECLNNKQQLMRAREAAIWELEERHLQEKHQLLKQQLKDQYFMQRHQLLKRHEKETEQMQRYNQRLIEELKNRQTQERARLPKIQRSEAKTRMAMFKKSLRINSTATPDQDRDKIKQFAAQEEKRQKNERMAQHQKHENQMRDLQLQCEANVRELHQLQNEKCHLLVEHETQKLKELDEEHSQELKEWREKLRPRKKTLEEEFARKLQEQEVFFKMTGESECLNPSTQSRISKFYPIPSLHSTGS
# From the text: as §1
# [23] = target: T23, panel of 371 human kinases (Homo sapiens, UniProt Q9P1W9); conditions: PIM2; 0.1 μM; 10 μM ATP; read-out: % Enzyme Activity (relative to DMSO controls)
# T23 construct: purchased Reaction Biology Corp
# From the text: as §1
# [24] = target: T24, panel of 371 human kinases (Homo sapiens, UniProt Q9Y2H1); conditions: STK38/NDR2; 0.1 μM; 10 μM ATP; read-out: % Enzyme Activity (relative to DMSO controls)
# T24 construct: purchased Reaction Biology Corp
# From the text: as §1
Structure (SMILES),remaining activity at 0.1 µM [1],remaining activity at 0.1 µM ([2]; CDK1/cyclin A),remaining activity at 0.1 µM ([2]; CDK1/cyclin B),remaining activity at 0.1 µM ([2]; CDK1/cyclin E),remaining activity at 0.1 µM [3],remaining activity at 0.1 µM [4],remaining activity at 0.1 µM [5],remaining activity at 0.1 µM [6],remaining activity at 0.1 µM [7],remaining activity at 0.1 µM [8],remaining activity at 0.1 µM [9],remaining activity at 0.1 µM [10],remaining activity at 0.1 µM [11],remaining activity at 0.1 µM [12],remaining activity at 0.1 µM [13],remaining activity at 0.1 µM [14],remaining activity at 0.1 µM [15],remaining activity at 0.1 µM [16],remaining activity at 0.1 µM [17],remaining activity at 0.1 µM [18],also measured
"CN1CCN(Cc2ccc(-c3cnc4[nH]cc(-c5ccc6[nH]ccc6c5)c4c3)cc2)CC1 [Compound 1, 3-(1H-Indol-5-yl)-5-(4-((4-methylpiperazin-1-yl)methyl)phenyl)-1H-pyrrolo[2,3-b]pyridine, reference compound]",69.2%,95.1%,96.5%,98.7%,105%,91.4%,102%,76.8%,91.1%,112%,111%,92.3%,90.3%,86.4%,101%,105%,70%,102%,75.6%,98%,remaining activity at 0.1 µM [19]: 107%; remaining activity at 0.1 µM [20]: 96.8%; remaining activity at 0.1 µM [21]: 83.2%; remaining activity at 0.1 µM [22]: 93.2%; remaining activity at 0.1 µM [23]: 106%; remaining activity at 0.1 µM [24]: 87.7%
"OCCN1CCN(Cc2ccc(-c3cnc4[nH]cc(-c5cccc(Cl)c5)c4c3)cc2)CC1 [Compound 12k, 2-(4-(4-(3-(3-Chlorophenyl)-1H-pyrrolo[2,3-b]pyridin-5-yl)benzyl)piperazin-1-yl)ethan-1-ol]",75.4%,79.9%,84.9%,91.1%,98%,98.5%,96.5%,75.1%,98.3%,103%,92.7%,102%,77.5%,95%,96.7%,96.1%,41.5%,106%,73.4%,93.5%,remaining activity at 0.1 µM [19]: 105%; remaining activity at 0.1 µM [20]: 97.1%; remaining activity at 0.1 µM [21]: 59.8%; remaining activity at 0.1 µM [22]: 83.5%; remaining activity at 0.1 µM [23]: 106%; remaining activity at 0.1 µM [24]: 77.8%
